# Test results taken from patent US20060263448A1, “Use of extracts from roots of pelargonium sidoides and pelargonium reniforme” (priority 2004, published 2006).
# Test system: Mycobacterium ranae
# Experiment: Assay on anti-mycobacterial activity (suspension dilution method)
# Assay type: cell-based
# Conditions: M. ranae, 48 h at 37° C., visual evaluation of growth inhibition
# Description: To assay the anti-mycobacterial efficacy, Mycobacterium ranae that represents a non-human pathogenic mycobacterium having a similar sensitivity against chemotherapeutic agents like M. tuberculosis was used. The suspension dilution method was used to determine the minimal inhibitory concentration (MHC). The extract of Pelargonium sidoides was solved in DMSO and serially diluted to obtain the required concentrations. Pelargonium extract or the solvent was added in a volume of 10 μl to 48-well microtiter plates containing 990 μl of an M. ranae suspension (ATCC 10) in a concentration of 1-5×10^5 CFU/ml Brain-Heart Infusion Broth (Difco, USA) per well. The maximum concentration of the solvent (DMSO) was 1%. Pelargonium extract was tested at concentrations between 100 and 0.03 μg/ml. All tests were carried out twice. The plates were incubated for 48 h at 37° C. and then the inhibition of the growth of the bacteria was evaluated visually.
substance,measurement,value
Gentamicin,minimal inhibitory concentration (MHC),0.3 µg/mL
